Assay [1] addresses Cyclopropane-fatty-acyl-phospholipid synthase (Escherichia coli) (UniProt P0A9H7). As to the kind of experiment: Inhibition constant against Escherichia coli cyclopropane fatty acid synthase.
For assay [2] the target is unchanged. The description is as above. The source holds these as a separate data set.

Chain of Cyclopropane-fatty-acyl-phospholipid synthase (Escherichia coli) (P0A9H7 whole entry, looked up): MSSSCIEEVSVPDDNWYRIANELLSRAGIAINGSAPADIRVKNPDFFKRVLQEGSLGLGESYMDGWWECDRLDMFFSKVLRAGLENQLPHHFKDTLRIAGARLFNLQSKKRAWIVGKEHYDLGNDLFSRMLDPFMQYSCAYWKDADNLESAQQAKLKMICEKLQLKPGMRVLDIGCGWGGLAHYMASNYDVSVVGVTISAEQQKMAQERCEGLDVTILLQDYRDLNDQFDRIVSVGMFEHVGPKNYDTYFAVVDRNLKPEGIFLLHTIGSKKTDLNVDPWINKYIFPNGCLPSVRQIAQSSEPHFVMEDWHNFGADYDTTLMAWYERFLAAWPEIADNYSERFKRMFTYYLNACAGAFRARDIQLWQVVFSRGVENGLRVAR

On to `Nc1ncnc2c1ncn2[C@@H]1O[C@H](CSCCC(N)C(=O)O)[C@@H](O)[C@H]1O` (stereo partly drawn) [2-Amino-4-[(2S,3S,4R,5R)-5-(6-amino-purin-9-yl)-3,4-dihydroxy-tetrahydro-furan-2-ylmethylsulfanyl]-butyric acid], for which the affinity in assay [1] corresponds to a Ki of 30 µM.
The molecule `C[S+](C)C[C@H]1O[C@@H](n2cnc3c(N)ncnc32)[C@H](O)[C@@H]1O` registered an inhibition constant (Ki) in assay [1] of 2500 µM.
`C[S+]([O-])C[C@H]1O[C@@H](n2cnc3c(N)ncnc32)[C@H](O)[C@@H]1O` (stereo partly drawn) [(2R,3R,4S,5S)-2-(6-Amino-purin-9-yl)-5-methanesulfinylmethyl-tetrahydro-furan-3,4-diol] had an inhibitory constant (Ki) in assay [1] of 500 µM.
In assay [1], `Nc1ncnc2c1ncn2[C@@H]1O[C@H](CSCC[C@H](N)C(=O)O)[C@@H](O)[C@H]1O` [AdoHcy] returned an inhibition constant (Ki) of 150 µM.
As for `Nc1ncnc2c1ncn2[C@@H]1O[C@H](C[S+]([O-])CC[C@H](N)C(=O)O)[C@@H](O)[C@H]1O` (stereo partly drawn) [2-Amino-4-[(2S,3S,4R,5R)-5-(6-amino-purin-9-yl)-3,4-dihydroxy-tetrahydro-furan-2-ylmethanesulfinyl]-butyric acid], the Ki in assay [1] was 50 µM; in assay [2], 30 µM.
In turn, `CSC[C@H]1O[C@@H](n2cnc3c(N)ncnc32)[C@H](O)[C@@H]1O` [(2R,3R,4S,5S)-2-(6-aminopurin-9-yl)-5-(methylsulfanylmethyl)oxolane-3,4-diol] displayed a Ki in assay [1] of 1500 µM.
In the case of `Nc1ncnc2c1ncn2[C@@H]1O[C@H](CS(=O)(=O)CC[C@H](N)C(=O)O)[C@@H](O)[C@H]1O` [2-Amino-4-[(2S,3S,4R,5R)-5-(6-amino-purin-9-yl)-3,4-dihydroxy-tetrahydro-furan-2-ylmethanesulfonyl]-butyric acid], the Ki in assay [1] was 100 µM.
`CS(=O)(=O)C[C@H]1O[C@@H](n2cnc3c(N)ncnc32)[C@H](O)[C@@H]1O` [(2R,3R,4S,5S)-2-(6-Amino-purin-9-yl)-5-methanesulfonylmethyl-tetrahydro-furan-3,4-diol] yielded a Ki in assay [1] of 220 µM.

As a reminder, the Ki is a measure of affinity in units of concentration, obtained from inhibition or displacement. Read a high Ki as weaker binding.
